# Like-named read-outs stand apart in the source and are kept apart here.
# Key:
# Format in all cases: cell-based
# Aspergillus niger = assay: Log kill test of preservative/disinfectant formulae (challenge inoculum, plating over time)
# Description: (§1) Disinfectant and preservative tests are most often performed by challenging the preparation with a concentrated inoculum (e.g., 10^5-10^6 colony forming units (cfu)/ml) of each test organism. Over time samples are taken and plated on a growth medium to estimate the number of live organisms remaining at each time point.
# (§2) The method for evaluating the effectiveness of a disinfectant for contact lenses generally requires measuring the ability of the agent to reduce the numbers of viable infective organisms during a period of time consistent with the normal period of storage of contact lenses between wearing times. This reduction of numbers of organisms is typically reported in terms of the change in the common logarithm (base 10 logarithm) of the microbial population as a result of exposure to the antimicrobial or disinfecting agent. For example, if the agent has effected a reduction in the concentration of a particular organisms in a challenge solution from 10^6 colony forming units (cfu) per milliliter (ml) to 10^2 cfu/ml within six hours of exposure then the change, or “log reduction”, of the organism as a result of exposure to the agent would be 4.0 (logs). In other words, the number of viable organisms have been reduced to one ten-thousandth of the original level.
# (§3) In procedures for verifying the effectiveness of ophthalmic antimicrobial agents generally recognized guidelines call for the use of Candida albicans (a yeast), Fusarium solani or Aspergillus niger (both molds), Pseudomonas aeruginosa (a Gram-negative bacterium), Staphylococcus aureus (a Gram-positive bacterium), Serratia marcescens (a Gram-negative bacterium) and Escherichia coli (a bacterium common in the human gastrointestinal tract).
# (§4) Various compounds/extracts were tested in the presence of either a phosphate or a borate-buffered solution. The test organisms included (S. aureus.=Staphylococcus aureus; Ps. aeruginosa=Pseudomonas aeruginosa; E. coli=Escherichia coli; C. albicans.=Candida albicans; and A. niger=Aspergillus niger) and inspected at various time intervals to determine the “log kill” of the various formulations.
# Candida albicans = assay: as above
# Description: as §1, §2, §3, §4
# Serratia marcescens = assay: Log kill test of disinfectant formulae (6 hours)
# Description: as §1
# The method for evaluating the effectiveness of a disinfectant for contact lenses generally requires measuring the ability of the agent to reduce the numbers of viable infective organisms during a period of time consistent with the normal period of storage of contact lenses between wearing times. This reduction of numbers of organisms is typically reported in terms of the change in the common logarithm (base 10 logarithm) of the microbial population as a result of exposure to the antimicrobial or disinfecting agent. For example, if the agent has effected a reduction in the concentration of a particular organisms in a challenge solution from 10^6 colony forming units (cfu) per milliliter (ml) to 10^2 cfu/ml within six hours of exposure then the change, or “log reduction”, of the organism as a result of exposure to the agent would be 4.0 (logs). In other words, the number of viable organisms have been reduced to one ten-thousandth of the original level. […]
# L929 cell = assay: Cytotoxicity assay: high water-content soft contact lenses cycled five days in test solution, then L929 cell cytotoxicity model
# Procedure: The present inventors reported earlier on the anti-cytotoxic properties of certain natural products. Experiments were under taken to confirm the anti-cytotoxic effects of Allantoin in particular. […] Besides the usual microbial tests, the material was also used in a cytotoxicity assay, which consisted of cycling high water-content soft contact lenses for five days in each test solution. Then the solution saturated lenses were tested in a L929 cell cytotoxicity model. Cytotoxicity was rated from 0 to 5 with 2 or greater indicating cytotoxicity.
# Staphylococcus aureus = assay: Log kill test of preservative/disinfectant formulae (challenge inoculum, plating over time)
# Description: as §1, §2, §3, §4
# [1] = system: S. aureus, Ps. aeruginosa, E. coli, C. albicans, A. niger; assay: Preservative/disinfectant effectiveness against the panel of test organisms (USP Category 1A Preservative Effectiveness Test); conditions: for Effective Concentration (ppm) meeting the USP Category 1A Preservative Effectiveness Test requirements: summary of formulae that meet the requirements
# Description: as §1, §3, §4
# A recognized standard for evaluating the effectiveness of a preservation agent in contain in the USP. For the reader's convenience the formulae, which meet the USP Category 1A Preservative Effectiveness Test requirements, are summarized in Table 10.
# [2] = Cytotoxicity test, USP 24 <87> Biological Reactivity Tests, In Vitro, USP Elution
# Procedure: Cytotoxicity studies were also performed to determine the potential of these natural compounds, extracts and derivatives for irritation and discomfort when used as disinfecting or preservative agents. The cytotoxicity test analysis was performed in accordance with USP 24 <87> Biological Reactivity Tests, In Vitro, and USP Elution. Two ml of each sample were diluted with 10 ml of 1× MEM. The biological reactivity were described and rated as 0 (no reactivity), 1 (slight reactivity), 2 (mild reactivity), 3 (moderate reactivity), 4 (severe reactivity).
compound,measurement,setting,value
NC(=O)NC1NC(=O)NC1=O (centres unmarked) [Allantoin],"Effectiveness against Aspergillus niger, in words",Aspergillus niger,quite effective
same,"Effectiveness against Candida albicans, in words",Candida albicans,quite effective
same,"Effectiveness against Serratia marcescens, in words",Serratia marcescens,effective to augment the killing
same,"Cytotoxicity in L929 cell model, in words",L929 cell; lenses cycled five days in test solution,mitigate the cytotoxic characteristics of PHMB
COc1ccc2cc3[n+](cc2c1OC)CCc1cc2c(cc1-3)OCO2 [Berberine],"Effectiveness against Aspergillus niger, in words",Aspergillus niger,remarkably effective
same,"Effectiveness against Candida albicans, in words",Candida albicans,remarkably effective
same,"Effectiveness against Staphylococcus aureus, in words",Staphylococcus aureus,remarkably effective
O=C(/C=C/c1ccc(O)c(O)c1)O[C@@H]1C[C@](O)(C(=O)O)C[C@@H](O)[C@H]1O [Chlorogenic Acid],"Overall disinfectant/preservative effectiveness against the test organisms, in words",[1],quite effective
same,Effective Concentration (ppm) meeting the USP Category 1A Preservative Effectiveness Test requirements,[1],1000 ppm
COc1cc(/C=C/C(=O)O)ccc1O [Ferulic Acid],"Effectiveness against Candida albicans, in words",Candida albicans,better activity
same,"Overall disinfectant/preservative effectiveness against the test organisms, in words",[1],quite effective
same,Effective Concentration (ppm) meeting the USP Category 1A Preservative Effectiveness Test requirements,[1],1000 ppm
"OCCc1ccc(O)c(O)c1 [Hydroxytyrosol, 3,4-dihydroxy-phenylethanol]",Grade (biological reactivity),[2]; 33.3 ppm,0
same,Effective Concentration (ppm) meeting the USP Category 1A Preservative Effectiveness Test requirements,[1],200 ppm
C/C=C1/[C@H](O[C@@H]2O[C@H](CO)[C@@H](O)[C@H](O)[C@H]2O)OC=C(C(=O)OC)[C@H]1CC(=O)OCCc1ccc(O)c(O)c1 [Oleuropein],Grade (biological reactivity),[2]; 8.3 ppm,0
same,Grade (biological reactivity),[2]; 33.3 ppm,0
same,Grade (biological reactivity),[2]; 166.7 ppm,0
O.O.O=c1c(O)c(-c2ccc(O)c(O)c2)oc2cc(O)cc(O)c12 [Quercetin Dihydrate],"Overall disinfectant/preservative effectiveness against the test organisms, in words","[1]; statement of the text, listed as Quercetin dihydrate, Dihydrate",extremely broad effectiveness
same,"Overall disinfectant/preservative effectiveness against the test organisms, in words","[1]; statement of the text, listed as Quercetin, Dihydrate",very good to excellent control
Oc1ccc(C=Cc2cc(O)cc(O)c2)cc1 [Resveratrol],"Overall disinfectant/preservative effectiveness against the test organisms, in words",[1],wide range of effectiveness
"polyhexamethyl biguanide [PHMB, reference compound]","Effectiveness against Candida albicans, in words",Candida albicans,only moderately effective
same,"Cytotoxicity in L929 cell model, in words",L929 cell,significant level of cytotoxicity
same,"Overall disinfectant/preservative effectiveness against the test organisms, in words",[1],extremely effective against the tested bacteria

# From patent publication US20030086986A1, “Ophthalmic, pharmaceutical and other healthcare preparations with naturally occurring plant compounds, extracts and derivatives” (priority 1998, published 2003)
